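Cells were grown in 96-well plates and exposed to each compound for 48 hours at five concentrations; endpoints were interpolated linearly between bracketing concentrations, or set to the highest concentration if not reached. At the GI50, growth is halved.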 Activity calls are given as the source filed them. Cut-off read from the data, not from the text of the source: active = GI50 up to about 1.1 µM and inactive = higher.
What was measured:
Experiment in all cases: NCI tumour cell line growth inhibition, 48 h
[1] = tested on: A498
[2] = tested on: ACHN
[3] = tested on: HCT-15
[4] = tested on: HOP-62
[5] = tested on: HOP-92
[6] = tested on: K562
[7] = tested on: LOX IMVI
[8] = tested on: MDA-N
[9] = tested on: Malme-3M
[10] = tested on: NCI-H226
[11] = tested on: NCI-H522
[12] = tested on: OVCAR-5
[13] = tested on: PC-3
[14] = tested on: SF-268
[15] = tested on: SK-MEL-28
[16] = tested on: SK-OV-3
[17] = tested on: HCC 2998
[18] = tested on: OVCAR-3
[19] = tested on: SNB-19
[20] = tested on: RPMI-8226

SMILES	GI50 [1]	GI50 [2]	GI50 [3]	GI50 [4]	GI50 [5]	GI50 [6]	GI50 [7]	GI50 [8]	GI50 [9]	GI50 [10]	GI50 [11]	GI50 [12]	GI50 [13]	GI50 [14]	GI50 [15]	GI50 [16]	GI50 [17]	GI50 [18]	GI50 [19]	GI50 [20]
CCOC(=O)CC1CCN(C(=O)c2ccccc2)C2Cc3c([nH]c4ccccc34)C12C[N+](=O)[O-] (stereo not drawn)	> 100 µM (inactive)	67 µM (inactive)	95.7 µM	46.1 µM (inactive)	40.6 µM (inactive)	36.4 µM (inactive)	> 100 µM (inactive)	> 100 µM (inactive)	> 100 µM (inactive)	> 100 µM (inactive)	> 100 µM (inactive)	> 100 µM (inactive)	43.5 µM (inactive)	> 100 µM (inactive)	> 100 µM (inactive)	> 100 µM (inactive)				
O=S1(=O)N=C(SCc2ccccc2)N(c2ccccc2)c2ccncc21	17.1 µM (inactive)	57.7 µM (inactive)	26.5 µM	31.3 µM (inactive)	22.2 µM (inactive)	29.9 µM (inactive)	53.7 µM (inactive)	27.4 µM (inactive)	49.5 µM (inactive)	37.6 µM (inactive)	18.7 µM (inactive)	> 100 µM (inactive)	25.7 µM (inactive)	36.6 µM (inactive)	91.2 µM (inactive)	38.8 µM (inactive)	38.7 µM (inactive)	31.9 µM (inactive)	99.8 µM (inactive)	
O=c1[nH]c2ccccc2c(=O)n1/N=C\c1ccccc1O	> 100 µM (inactive)	> 100 µM (inactive)	> 100 µM	> 100 µM (inactive)	67 µM (inactive)	> 100 µM (inactive)	> 100 µM (inactive)	> 100 µM (inactive)		> 100 µM (inactive)		> 100 µM (inactive)	> 100 µM (inactive)	58.6 µM (inactive)	> 100 µM (inactive)	> 100 µM (inactive)		> 100 µM (inactive)	> 100 µM (inactive)	> 100 µM (inactive)
CCOC(=O)C(NC(=O)c1ccccc1)(Nc1ccc(S(=O)(=O)Nc2cc(C)nc(C)n2)cc1)C(F)(F)F (stereo not drawn)	14.7 µM (inactive)	> 100 µM (inactive)	> 100 µM	> 100 µM (inactive)	> 100 µM (inactive)	> 100 µM (inactive)	> 100 µM (inactive)	> 100 µM (inactive)	> 100 µM (inactive)	> 100 µM (inactive)	> 100 µM (inactive)	> 100 µM (inactive)	> 100 µM (inactive)	> 100 µM (inactive)	> 100 µM (inactive)			> 100 µM (inactive)	> 100 µM (inactive)	> 100 µM (inactive)
N#Cc1ccccc1NC(=O)C(O)C(O)C(O)C(O)C=O (stereo not drawn)	> 100 µM (inactive)	> 100 µM (inactive)	> 100 µM		> 100 µM (inactive)	> 100 µM (inactive)	> 100 µM (inactive)	> 100 µM (inactive)	> 100 µM (inactive)	> 100 µM (inactive)	> 100 µM (inactive)	> 100 µM (inactive)	> 100 µM (inactive)	> 100 µM (inactive)	> 100 µM (inactive)	> 100 µM (inactive)	> 100 µM (inactive)	> 100 µM (inactive)	> 100 µM (inactive)	
C=CCNc1ccc(C)cc1	3.82 µM (inactive)	> 100 µM (inactive)	> 100 µM		> 100 µM (inactive)	> 100 µM (inactive)	> 100 µM (inactive)	> 100 µM (inactive)		> 100 µM (inactive)	> 100 µM (inactive)		> 100 µM (inactive)	> 100 µM (inactive)	> 100 µM (inactive)		> 100 µM (inactive)	> 100 µM (inactive)	> 100 µM (inactive)	
O=C(CSC1=NCCN1)c1ccccc1	> 100 µM (inactive)	> 100 µM (inactive)	> 100 µM	> 100 µM (inactive)	> 100 µM (inactive)	> 100 µM (inactive)	> 100 µM (inactive)	> 100 µM (inactive)	> 100 µM (inactive)	> 100 µM (inactive)	> 100 µM (inactive)	> 100 µM (inactive)	> 100 µM (inactive)	> 100 µM (inactive)	> 100 µM (inactive)	> 100 µM (inactive)		> 100 µM (inactive)	> 100 µM (inactive)	> 100 µM (inactive)
CSC(SC)=C1CC(=O)Nc2ccccc2C1=O	> 100 µM (inactive)	> 100 µM (inactive)	36.1 µM	> 100 µM (inactive)	22.2 µM (inactive)	27.7 µM (inactive)	17.4 µM (inactive)	40.6 µM (inactive)	37.4 µM (inactive)	> 100 µM (inactive)	57 µM (inactive)	> 100 µM (inactive)	> 100 µM (inactive)	> 100 µM (inactive)	36.8 µM (inactive)	> 100 µM (inactive)	> 100 µM (inactive)	45 µM (inactive)	> 100 µM (inactive)	
CCC1C2Cc3ccc(O)cc3C1(CC)CCN2C (stereo not drawn)	> 100 µM (inactive)	> 100 µM (inactive)	> 100 µM	> 100 µM (inactive)	> 100 µM (inactive)	> 100 µM (inactive)	> 100 µM (inactive)	> 100 µM (inactive)	> 100 µM (inactive)	> 100 µM (inactive)	> 100 µM (inactive)	> 100 µM (inactive)	> 100 µM (inactive)	> 100 µM (inactive)	> 100 µM (inactive)	> 100 µM (inactive)		> 100 µM (inactive)	> 100 µM (inactive)	> 100 µM (inactive)
C/C=C(/C)C(=O)O[C@@H]1c2c(C)coc2C[C@H]2CC[C@H](O)[C@H](C)[C@]21C		36.9 µM (inactive)	78.5 µM	> 100 µM (inactive)	74.8 µM (inactive)	38 µM (inactive)	49.4 µM (inactive)	50 µM (inactive)	26.9 µM (inactive)	52.1 µM (inactive)	60 µM (inactive)	> 100 µM (inactive)	97.7 µM (inactive)	70.8 µM (inactive)	44.8 µM (inactive)	> 100 µM (inactive)	> 100 µM (inactive)	27 µM (inactive)	> 100 µM (inactive)	31.3 µM (inactive)
O=[N+]([O-])C(Cl)=C/C(=C(\Cl)SCc1ccccc1)[N+](=O)[O-]	27 µM (inactive)	17 µM (inactive)	18.2 µM	18.9 µM (inactive)	15.4 µM (inactive)	13.3 µM (inactive)	16.5 µM (inactive)	23.4 µM (inactive)	20.2 µM (inactive)	26.8 µM (inactive)	20.7 µM (inactive)	23.7 µM (inactive)	22.1 µM (inactive)	28.6 µM (inactive)	26.3 µM (inactive)	59.7 µM (inactive)	30.6 µM (inactive)	15.5 µM (inactive)	38.4 µM (inactive)	
O=C1CSSCC(=O)Nc2ccccc2N1	> 100 µM (inactive)	> 100 µM (inactive)	> 100 µM	> 100 µM (inactive)	> 100 µM (inactive)	> 100 µM (inactive)	> 100 µM (inactive)	> 100 µM (inactive)	> 100 µM (inactive)	> 100 µM (inactive)	> 100 µM (inactive)	> 100 µM (inactive)	> 100 µM (inactive)	> 100 µM (inactive)	> 100 µM (inactive)	> 100 µM (inactive)		> 100 µM (inactive)	> 100 µM (inactive)	> 100 µM (inactive)
Cc1ccc(C2=Nc3c(N)nc(N)nc3NC(c3ccccc3)C2)cc1 (stereo not drawn)		15.4 µM (inactive)	3.1 µM	9.55 µM (inactive)	11.7 µM (inactive)	3.51 µM (inactive)	10.1 µM (inactive)	2.12 µM (inactive)	9.66 µM (inactive)	14.4 µM (inactive)	3.13 µM (inactive)	18 µM (inactive)	10.4 µM (inactive)	14.3 µM (inactive)	14.4 µM (inactive)	12.5 µM (inactive)	4.44 µM (inactive)	11.5 µM (inactive)	14.2 µM (inactive)	4.84 µM (inactive)
CCOC(=O)CCC(C(=O)OCC)n1nnc2ccc(Nc3c(C)[n+]([O-])c4cc(F)c(OCC)cc4[n+]3[O-])cc21 (stereo not drawn)	> 100 µM (inactive)	51.8 µM (inactive)	52.8 µM	> 100 µM (inactive)	24.6 µM (inactive)	41.4 µM (inactive)	32.7 µM (inactive)	46.3 µM (inactive)	35.6 µM (inactive)	48.5 µM (inactive)	61.7 µM (inactive)	> 100 µM (inactive)	> 100 µM (inactive)	28 µM (inactive)		> 100 µM (inactive)		25.4 µM (inactive)	> 100 µM (inactive)	21.5 µM (inactive)
CO/C1=C\C(C)=C\C(C)C(O)C(C)C/C(C)=C/C=C/C(OC)C(C(C)C(O)C(C)C2(O)CC(O)C(C)C(C(C)C)O2)OC1=O (stereo not drawn)		0.0148 µM (active)	0.000143 µM	5.1e-05 µM (active)	0.00041 µM (active)	0.00231 µM (active)	1e-05 µM (active)	0.00182 µM (active)	0.0119 µM (active)	0.0134 µM (active)	0.00112 µM (active)	0.000491 µM (active)	0.00252 µM (active)	0.00519 µM (active)	0.0661 µM (active)	0.684 µM (active)	0.000757 µM (active)	0.00434 µM (active)	10.9 µM (inactive)	0.00151 µM (active)
